Patent US5073557A, “Novel substituted pyrazine, formulations thereof and use in medicine” (Merck Sharp & Dohme Limited, priority 1989, dated 1991)

Legend:
Format in all cases: cell-based
[1] = target: T1, M1 muscarinic receptor (ganglion) (Rattus norvegicus, UniProt P08482); assay: Agonist activity against muscarinic receptors in the ganglion (M1 agonist activity); conditions: for EC50: ganglion
T1 construct: agonist activity against muscarinic receptors in the ganglion, heart and ileum; from tissue
T1 sequence (P08482 1-460): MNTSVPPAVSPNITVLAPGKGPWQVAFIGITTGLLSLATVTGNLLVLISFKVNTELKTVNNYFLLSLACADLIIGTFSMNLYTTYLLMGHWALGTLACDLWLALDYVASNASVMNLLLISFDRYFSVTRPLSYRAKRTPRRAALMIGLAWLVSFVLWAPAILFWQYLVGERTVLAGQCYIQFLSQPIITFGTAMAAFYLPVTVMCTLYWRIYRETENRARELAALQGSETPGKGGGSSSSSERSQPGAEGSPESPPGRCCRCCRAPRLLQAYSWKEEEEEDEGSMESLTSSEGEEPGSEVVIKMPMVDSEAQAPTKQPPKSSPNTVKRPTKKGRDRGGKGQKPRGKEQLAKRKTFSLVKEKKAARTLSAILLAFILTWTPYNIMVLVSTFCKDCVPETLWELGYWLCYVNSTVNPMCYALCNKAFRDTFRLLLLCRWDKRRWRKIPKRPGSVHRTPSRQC
Text: (§1) European Patent Application No. 89200147 (Publication No. 327155) discloses a class of pyrazines, pyridazines or pyrimidines, and salts and prodrugs thereof, substituted on one of the ring carbon atoms thereof with a non-aromatic azacyclic or azabicyclic ring system; and independently substituted on each of the other ring carbon atoms with a substituent of low lipophilicity or a hydrocarbon substituent, which compounds stimulate cholinergic transmission.
(§2) The following results are obtained in pharmacological assays to allow agonist activity against muscarinic receptors in the ganglion, heart and ileum.

[2] = target: T2, M3 muscarinic receptor (ileum) (Cavia porcellus, UniProt H0W1Z3); assay: Agonist activity against muscarinic receptors in the ileum (M3 agonist activity)
T2 construct: agonist activity against muscarinic receptors in the ganglion, heart and ileum; from tissue; host or cells: ileum
Text: as §1, §2

[3] = target: T3, M2 muscarinic receptor (heart) (Cavia porcellus, UniProt H0VRN8); assay: Pharmacological assay on muscarinic receptors in the heart (M2 antagonist activity); conditions: read-out: Heart (pA2) (converted)
T3 construct: agonist activity against muscarinic receptors in the ganglion, heart and ileum; from tissue
T3 sequence (H0VRN8 1-466): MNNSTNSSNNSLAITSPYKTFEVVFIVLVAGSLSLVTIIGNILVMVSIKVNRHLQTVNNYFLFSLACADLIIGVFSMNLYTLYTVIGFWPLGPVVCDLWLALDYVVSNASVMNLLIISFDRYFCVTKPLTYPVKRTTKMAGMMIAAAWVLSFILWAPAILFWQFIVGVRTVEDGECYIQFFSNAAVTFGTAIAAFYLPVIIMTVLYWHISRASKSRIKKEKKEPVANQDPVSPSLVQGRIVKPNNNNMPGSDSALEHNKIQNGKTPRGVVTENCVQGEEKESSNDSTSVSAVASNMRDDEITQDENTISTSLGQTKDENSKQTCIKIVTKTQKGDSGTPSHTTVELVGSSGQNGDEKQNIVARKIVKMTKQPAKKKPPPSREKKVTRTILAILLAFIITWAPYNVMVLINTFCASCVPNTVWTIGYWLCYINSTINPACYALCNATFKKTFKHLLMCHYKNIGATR
Text: as §1, §2

T2 sequence (H0W1Z3 1-590): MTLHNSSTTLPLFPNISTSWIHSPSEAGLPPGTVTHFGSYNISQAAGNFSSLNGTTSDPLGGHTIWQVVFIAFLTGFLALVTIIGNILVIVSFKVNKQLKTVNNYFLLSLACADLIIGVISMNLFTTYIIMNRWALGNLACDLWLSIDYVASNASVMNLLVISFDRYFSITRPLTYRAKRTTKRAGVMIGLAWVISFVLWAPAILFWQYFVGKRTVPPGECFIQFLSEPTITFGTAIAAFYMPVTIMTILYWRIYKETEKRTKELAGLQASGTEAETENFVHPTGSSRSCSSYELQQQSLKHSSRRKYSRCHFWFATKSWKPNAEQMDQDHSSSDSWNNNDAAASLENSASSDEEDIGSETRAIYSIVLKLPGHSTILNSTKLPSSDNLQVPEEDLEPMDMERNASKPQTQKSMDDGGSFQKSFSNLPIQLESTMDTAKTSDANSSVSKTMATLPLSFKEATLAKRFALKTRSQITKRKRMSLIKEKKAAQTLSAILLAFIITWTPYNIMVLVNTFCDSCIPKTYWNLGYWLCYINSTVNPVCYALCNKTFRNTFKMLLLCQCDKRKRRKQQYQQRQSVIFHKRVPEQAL

SMILES | EC50 [1] [nM] | EC50 [2] [nM] | Kb [3] [nM] | potency at the M1 receptor relative to the corresponding (S)-enantiomer ([1]; M1 receptor, versus (S)-enantiomer) | potency at the M1 receptor relative to the corresponding racemate ([1]; M1 receptor, versus racemate)
Clc1cncc(C2CN3CCC2CC3)n1 (racemic) [racemate, 3-[2-(6-chloropyrazin)yl]-1-azabicyclo[2.2.2]octane] | 100 | 30 | 79.4 |  | 
Clc1cncc([C@H]2CN3CCC2CC3)n1 [(1), (R)-3-[2-(6-chloropyrazin)yl]-1-azabicyclo[2.2.2]octane] | 50 | 40 | 63.1 | four times | twice the potency
Clc1cncc([C@@H]2CN3CCC2CC3)n1 [(S) isomer] | 200 | 600 | 126 |  | 
